Results: US20050267204A1, “Synergistic gold-containing compositions” (MEDICAL INNOVATIONS LIMITED, priority 1996, published 2005)
“Also recorded” adds a separate entry of the source. Like-named read-outs stand apart in the source and are kept apart here.

Columns and labels:
[1] = system: TPA-induced epidermal hyperplasia; test: Inhibition of TPA-induced epidermal hyperplasia (epidermal thickness) on back skin of mice; format: in vivo, BALB/c mice; conditions: for Emax: read-out: Emax (% inhibition); for Relative potency: hydrocortisone acetate = 1.0; for Synergistic factor: IC50 without auranofin divided by IC50 with auranofin (0.2%); for Synergism with auranofin, epidermal hyperplasia (in words): auranofin (0.2%) co-administered; for Percent increase in the apparent potency of the steroid: in presence of auranofin (0.2%)
Method: (§1) The mice were housed in stainless steel cages, 6 mice per cage under normal laboratory conditions (room temperature at about 22° C.) at least 7 days before the experiments for acclimatization. Food and water were allowed ad libitum throughout the experiment period. The backs of the mice were shaved with an electric clipper two days before each treatment and only those mice showing no hair regrowth were used (i.e., the mice in the resting phase of the hair growth cycle were selected). During treatment, the mice were held with their tails and put on top of the cage so that they grasped the cage and rested there. The solutions were applied to an area approximately 2 cm×2 cm on the shaved back of the mice by using a “Pipetman” to apply the solution. If auranofin ointment or ointment base was applied, the amount was standardized by using a microspatula which was crimped at one end, the ointment was then put into the ridge and the excess removed by means of another microspatula and applied sparingly twice a day. After a fixed time, the mice were killed routinely by cervical dislocation between 9 a.m. and 11 a.m. to avoid variations due to circadian rhythms, and an area (1 cm×1 cm) was excised from the centre of the treated area by scalpel and scissors. The rest of the tissues were disposed by combustion. The tissues were then fixed, embedded, sectioned and stained.
Epidermal thickness was determined by image analysis. This image analysis system was a minicomputer (Tracor Northern TN8500) attached to a light microscope (Zeiss Axioplan) and a camcorder (Sony DXC-3000P). Sections were taken from each tissue block and 20 measurements were taken at fixed intervals from each section. The average value for the 20 measurements was obtained and entered as one value for each mouse. The mean and SEM for the six mice in each treatment group were calculated.
(§2) The percent inhibition of drug on TPA-induced skin responses (i.e., epidermal hyperplasia, inflammatory cell infiltration and skin-fold thickness) was calculated by using the following formula: [formula]
(§3) This provides estimates of (a) the potency, (b) the efficacy or maximum effect (Emax) and the slope of the log concentration-response curve by using Hill coefficient (γ). The Hill Equation may be expressed as follows: [formula] where IC50 is the drug concentration producing 50% of the maximal response and Emax refers to the maximal effect produced by the drug and is also termed efficacy. Efficacy is the measurement of the intrinsic ability of a drug to initiate a response once it occupies receptor sites. […] The Hill coefficient (γ) measures the slope of the dose-effect curve which can be markedly influenced by the shape of the curve that describes the binding of the drug to the receptor. For many drugs, y lies between 0.6 and 1.5. […] On the other hand, when γ is less than 1, with a shallow hyperbolic concentration effect relationship, the activity occurs over a wide range of drug levels.
(§4) In the present study, concentration-response curves were obtained for a series of corticosteroids. In these experiments, curve fitting was accomplished using a computer programme called “The Scientist” (MicroMath Scientific Software, Salt Lake City, Utah, USA.) in which the parameters, Emax, IC50 and Hill coefficient (γ) for each steroids were estimated by using non-linear regression and least square fits.
Mice were divided into treatment groups. TPA and corticosteroids were premixed to the concentrations required and applied to the backs of mice immediately. For those steroids not very soluble in acetone (i.e., betamethasone, dexamethasone, hydrocortisone and hydrocortisone acetate), the drugs were dissolved in 100 μL dimethylformamide before further dilution with acetone. The efficacy of corticosteroids in inhibiting epidermal hyperplasia, inflammatory cell infiltration and skin-fold thickness was assessed as described previously. Concentration-response curves were determined after computer-fitting of data.

[2] = system: TPA-induced inflammatory cell infiltration into the dermis; test: Inhibition of TPA-induced inflammatory cell infiltration into the dermis of mice; format: in vivo, BALB/c mice; conditions: for IC50 / Emax: Mus musculus; for Emax: read-out: Emax (% inhibition); for Relative potency: hydrocortisone acetate = 1.0; for Synergistic factor: IC50 without auranofin divided by IC50 with auranofin (0.2%)
Method: as §1
Infiltration of inflammatory cells was determined by the same image analysis system using the section taken from the block of mouse skin embedded in paraffin wax or Spurr's resin and stained with haematoxylin and eosin or toluidine blue respectively. For each section, 10 fields, unless otherwise stated, were chosen randomly and the cell density per mm^2 of field determined. The average value for the 10 fields was obtained and entered as one value for each mouse. The mean and SEM for the six mice in each treatment group were calculated.
The measurement of the inflammatory cell infiltration included the background values which included other materials in the dermis stained in the same way.
as §2, §3, §4
Mice were divided into treatment groups. TPA and corticosteroids were premixed to the concentrations required and applied to the backs of mice immediately.

[3] = Mus musculus, from Hill equation, concentration that produced 50% of Emax, read-out: IC50 for inhibition of epidermal thickening (M × 10^−4)
[4] = Mus musculus, read from concentration-response curve, concentration that inhibited 50% of the TPA effect, read-out: IC50 for inhibition of epidermal thickening (M × 10^−4)
[5] = Mus musculus, topical, Hill equation fit, means ± SD, steroid premixed with TPA, topical, read-out: IC50 (M × 10^−4)
[6] = Mus musculus, Hill equation fit, means ± SD, steroid premixed with TPA, topical
[7] = from Hill equation, concentration that produced 50% of Emax, read-out: IC50 for inhibition of inflammatory cell infiltration in the dermis (M × 10^−4)
[8] = read from concentration-response curve, concentration that inhibited 50% of the TPA effect, read-out: IC50 for inhibition of inflammatory cell infiltration in the dermis (M × 10^−4)
[9] = topical, Hill equation fit, means ± SD, steroid premixed with TPA, topical, read-out: IC50 (M × 10^−4)
[10] = Hill equation fit, means ± SD, steroid premixed with TPA, topical
[11] = Mus musculus, with auranofin (0.2%), from computer fitted graph, means ± SD, read-out: Apparent IC50 (M × 10^−4) with auranofin
[12] = Mus musculus, without auranofin, from computer fitted graph, means ± SD, read-out: Apparent IC50 (M × 10^−4) without auranofin
[13] = with auranofin (0.2%), from computer fitted graph, means ± SD, read-out: Apparent IC50 (M × 10^−4) with auranofin
[14] = without auranofin, from computer fitted graph, means ± SD, read-out: Apparent IC50 (M × 10^−4) without auranofin

IC50 [1, 3] [µM]	IC50 [1, 4] [µM]	IC50 [1, 5] [µM]	IC50 [2, 7] [µM]	IC50 [2, 8] [µM]	IC50 [2, 9] [µM]	IC50 [1, 11] [µM]	IC50 [1, 12] [µM]	Structure (SMILES)	Emax [1, 6] [%]	Relative potency ([1]; from Hill-equation IC50)	Relative potency ([1]; from IC50 read from curve)	Emax [2, 10] [%]	Relative potency ([2]; from Hill-equation IC50)	Relative potency ([2]; from IC50 read from curve)	Potency for inhibition of TPA-induced epidermal hyperplasia (in words) ([1]; ranking in text)	Potency for inhibition of TPA-induced inflammatory cell infiltration (in words) ([2]; ranking in text)	Synergistic factor [1]	Synergism with auranofin, epidermal hyperplasia (in words) [1]	Percent increase in the apparent potency of the steroid [1]	Synergistic factor [2]	further results
126	200	126 ± 44	444	410	444 ± 102	–	–	C[C@@H]1C[C@H]2[C@@H]3CCC4=CC(=O)C=C[C@]4(C)[C@@]3(F)[C@@H](O)C[C@]2(C)[C@@]1(O)C(=O)CO [Dexamethasone]	90.7 ± 5.72	29.10	35.0	99	17.42	26.83	–	–	–	–	–	–	–
113	140	113 ± 35	39	70	39 ± 3	–	–	CC1(C)O[C@@H]2C[C@H]3[C@@H]4CCC5=CC(=O)C=C[C@]5(C)[C@@]4(F)[C@@H](O)C[C@]3(C)[C@]2(C(=O)CO)O1 [Triamcinolone acetonide]	89.8 ± 6.4	32.45	50.0	77.2 ± 1.26	198.28	157.14	–	–	–	–	–	–	–
3670	7000	3670 ± 1200	7730	11000	7730 ± 1380	–	–	CC(=O)OCC(=O)[C@@]1(O)CC[C@H]2[C@@H]3CCC4=CC(=O)CC[C@]4(C)[C@H]3[C@@H](O)C[C@@]21C [Hydrocortisone acetate, hydrocortisone acetate]	79.6 ± 7.62	1.0	1.0	79.4	1.0	1.0	low to medium potencies	low to medium potencies	–	–	–	–	–
4620	4510	4620 ± 1320	6150	6000	6150 ± 966	2200 ± 1120	4500 ± 1320	C[C@]12CCC(=O)C=C1CC[C@@H]1[C@@H]2[C@@H](O)C[C@@]2(C)[C@H]1CC[C@]2(O)C(=O)CO [Hydrocortisone, hydrocortisone]	99 ± 9.54	0.79	1.55	100	1.26	1.83	low to medium potencies	low to medium potencies	2.05	minor degree of synergism	100%	1.94	IC50 [2, 13]: 3100 ± 412 µM; IC50 [2, 14]: 6000 ± 966 µM

The next lines start with the molecule.

Structure (SMILES)	IC50 [1, 3] [µM]	IC50 [1, 4] [µM]	IC50 [1, 5] [µM]	IC50 [2, 7] [µM]	IC50 [2, 8] [µM]	IC50 [2, 9] [µM]	IC50 [1, 11] [µM]	IC50 [1, 12] [µM]	Emax [1, 6] [%]	Relative potency ([1]; from Hill-equation IC50)	Relative potency ([1]; from IC50 read from curve)	Emax [2, 10] [%]	Relative potency ([2]; from Hill-equation IC50)	Relative potency ([2]; from IC50 read from curve)	Potency for inhibition of TPA-induced epidermal hyperplasia (in words) ([1]; ranking in text)	Potency for inhibition of TPA-induced inflammatory cell infiltration (in words) ([2]; ranking in text)	Synergistic factor [1]	Synergism with auranofin, epidermal hyperplasia (in words) [1]	Percent increase in the apparent potency of the steroid [1]	Synergistic factor [2]	further results
CC[PH](CC)(CC)[Au][S][C@@H]1O[C@H](COC(C)=O)[C@@H](OC(C)=O)[C@H](OC(C)=O)[C@H]1OC(C)=O [Auranofin, (1-thio-p-D-glucopyranose 2,3,4,6-tetraacetato-S)-(triethylphosphine)-Au(I)]	–	–	–	–	–	–	–	–	–	–	–	–	–	–	–	–	–	–	–	–	Inhibition of TPA-induced epidermal hyperplasia ([1]; auranofin (0.2%) alone, FIG. 1): about 10%
CC1(C)O[C@@H]2C[C@H]3[C@@H]4C[C@H](F)C5=CC(=O)C=C[C@]5(C)[C@@]4(F)[C@@H](O)C[C@]3(C)[C@]2(C(=O)CO)O1 [Fluocinolone acetonide, fluocinolone acetonide]	39	21	39 ± 14	16	25	16 ± 2	1.6 ± 0.2	21 ± 14	89.6 ± 6.93	94.03	333.33	79.6 ± 2.41	–	440	strong to very strong potencies	most potent agent	13.13	massive synergism	1,300%	2.27	IC50 [2, 13]: 11 ± 1.3 µM; IC50 [2, 14]: 25 ± 0.2 µM; Potency for inhibition of TPA-induced inflammatory cell infiltration (in words) ([2]; ranking in text, listed as fluocinolone acetonide): strong to very strong anti-inflammatory effect
CCC(=O)OCC(=O)[C@@]1(OC(=O)CC)[C@@H](C)C[C@H]2[C@@H]3CCC4=CC(=O)C=C[C@]4(C)[C@@]3(F)[C@@H](O)C[C@@]21C [Betamethasone dipropionate, betamethasone dipropionate]	81	140	81 ± 36	29	40	29 ± 6	2.5 ± 0.3	140 ± 36	95.6 ± 6.55	45.27	50.0	90.8 ± 3.71	266.66	275.0	–	–	56.0	massive synergism	5,600%	4.44	Potency for inhibition of TPA-induced epidermal hyperplasia (in words) [1]: medium to strong potencies; also recorded: strong to very strong potencies; Inhibition of TPA effect (epidermal hyperplasia) ([1]; 1×10^−5 M combined with auranofin (0.2%), FIG. 1): about 65%; inhibition at 10 µM ([1]; Mus musculus, 1×10^−5 M alone, FIG. 1, read-out: Inhibition of TPA effect (epidermal hyperplasia)): ~20%; Ratio of concentration without auranofin to concentration with auranofin for the same effect ([1]; about 65% inhibition level): 50 times; Concentration that, in the absence of auranofin, produced the same effect as the combination ([1]; same effect as 1×10^−5 M with auranofin (0.2%)): 500 µM; Potency for inhibition of TPA-induced inflammatory cell infiltration (in words) [2]: medium to strong potencies; also recorded: strong to very strong anti-inflammatory effect; IC50 [2, 13]: 9 ± 1.6 µM; IC50 [2, 14]: 40 ± 6 µM; Increase in apparent IC50 ([2]; in presence of auranofin (0.2%), Table 10): 400-500%
C[C@H]1C[C@H]2[C@@H]3CCC4=CC(=O)C=C[C@]4(C)[C@@]3(F)[C@@H](O)C[C@]2(C)[C@@]1(O)C(=O)CO [Betamethasone, betamethasone]	2720	5000	1380	1310	2100	1310 ± 165	–	–	94.2 ± 7.33	1.35	1.40	74.5 ± 3.29	5.89	5.23	–	–	–	–	–	–	–
